Source: patent US8372421B2, “Inhibition of mitogen-activated protein kinases in cardiovascular disease” (New York University, priority 2004, dated 2013)

Tests used:
[1] = test system: balloon-injured carotid arteries; details: delivered pre- and post-operatively; effect relatively modest; cited from earlier work
medial cell apoptosis = details: EJV pretreated with 80 μM UO126; 1 day and 4 days post-anastomosis
Method: (§1) Carotid artery bypass using reversed autologous external jugular vein (EJV) was performed on 29 purpose-bred mongrel dogs. Following skin incision, the EJV was exposed with a “no-touch” technique, and the side branches were clipped and divided. The dogs received heparin systemically (100 U/kg) and the ipsilateral common carotid artery was dissected free of the surrounding tissue. The EJV was ligated and excised. The lumen of the EJV was flushed with plasmalyte solution without distending the vein. A segment of the excised vein was removed and labeled (“control 1”). The EJV was reversed and grafted to the common carotid artery in an end-to-side fashion with 7-0 polypropylene suture, and the carotid artery was ligated and divided. See Saunders et al., J Thorac Cardiovasc Surg. 2004; 127:1276-1284.
(§2) Each EJV was grafted to a carotid artery. Autologous femoral vein was excised but not treated or grafted.

ERK-1/2 = details: excised EJV immersed 20 minutes in 80 μmmoles/L UO126 before grafting; 3 hours post-grafting; relative to DMSO-pretreated EJVs
Method: as §1, §2

PCNA expression = details: EJV pretreated with 80 μM UO126; 24 hours and 4 days post-grafting; relative to DMSO-pretreated EJVs
Method: as §1, §2

ERK-1/2 activation = details: cited from earlier work
[2] = test system: myeloperoxidase-positive (MPO) cells; details: graft immersed in UO126 (80 μM/L) prior to grafting; 24 hours and 4 days post-operatively
Method: as §1
(§3) Inflammation is a key component of a vessel's response to injury.
(§4) This experiment, which also used the canine model described in Example 1, investigated the levels of CRP and MPO cells in arterialized vein grafts immersed in a solution of UO126 (80 μM/L) (solubilized with DMSO and diluted in PBS) prior to grafting (i.e., pretreated grafts), arterialized vein grafts that were not pretreated, and contralateral ungrafted, un-pretreated external jugular veins.

C reactive protein (CRP) = details: graft immersed in UO126 (80 μM/L) prior to grafting; 24 hours post-operatively
Method: as §1, §3, §4

[3] = test system: arterialized vein graft wall; details: EJV immersed 20 minutes in 80 μmoles/L UO126 before grafting; AVG harvested at 28 days; 1% cholesterol chow; DMSO controls 358.2+/−190.3; p=0.012
Method: The experimental procedure followed in the canine model described in Examples 1, 2, and 3 was applied to white New Zealand rabbits fed a 1% cholesterol chow. Prior to grafting, the excised autologous EJVs were fully immersed for 20 minutes at room temperature in about 5 ml of a solution containing 80 μmoles/L of UO126 (solubilized with DMSO and diluted in PBS) or vehicle (DMSO, 0.8%) alone in PBS. Each EJV was grafted to a carotid artery. Autologous femoral vein was excised but not treated or grafted. The veins were fixed in formaldehyde, and sections stained with hematoxylin/eosin were used for the following analysis.

Compound | ERK activation [1] | medial cell proliferation [1] | medial cell apoptosis (TUNEL) (medial cell apoptosis) | ERK-1/2 activation (ratio of phosphorylated to total ERK-1/2) (ERK-1/2) | PCNA expression (PCNA expression) | potency as inhibitor of ERK-1/2 activation compared with PD098059 (ERK-1/2 activation) | levels of MPO cells associated with arterialized vein grafts [2] | upregulation of CRP in arterialized vein grafts (C reactive protein (CRP)) | vein wall thickness (intima+media) to luminal circumference ratio (mean value+/−SD) [3]
COc1cccc(-c2cc(=O)c3ccccc3o2)c1N [PD98059, 2-(2′-amino-3′-methoxyphenyl) oxanaphthalen-4-one] | inhibit | inhibit | – | – | – | – | – | – | –
N#CC(=C(N)Sc1ccccc1N)C(C#N)=C(N)Sc1ccccc1N [UO126, 1,4-diamino-2,3-dicyano-1,4-bis[2-aminophenylthio]butadiene] | – | – | marked and sustained (up to 4 days) induction | significantly reduced | markedly decreased | more potent | significantly downregulated | does not affect | 288.8+/−109.5
